These results are taken from publication PMC8320897, “Inhibition of PI3K and MAPK pathways along with KIT inhibitors as a strategy to overcome drug resistance in gastrointestinal stromal tumors” (PLoS ONE, 2021).

Assay [1] deals with MRC5. Description: Cell proliferation assay, control cell line. The conditions noted are these: Homo sapiens, MRC5, 72 h, read-out: IC50 MRC5.
Assay [2] concerns GIST-T1/670. Description: Cell proliferation assay (Cell Counting Kit-8). In kind it is cell-based, human. The note with it: read-out: IC50 T1/670.
The subject of assay [3] is GIST-T1. The assay is described as follows: Cell proliferation assay (Cell Counting Kit-8), drug screen. The class given is cell-based, human. The conditions noted are these: read-out: IC50 GIST-T1.
Assay [4] concerns MCF7. The assay is described as follows: Cell proliferation assay, control cell line. The note with it: Homo sapiens, MCF7, 72 h, read-out: IC50 MCF7.
Assay [5] concerns GIST882. The assay is described as follows: Cell proliferation assay (Cell Counting Kit-8), drug screen. In kind it is cell-based. The note with it: read-out: IC50 GIST882. A general note: Formazan colour is commonly taken as a measure of viable cells.
Assay [6] concerns GIST-T1/10R. Description: Cell proliferation assay (Cell Counting Kit-8). The class given is cell-based, human. The conditions noted are these: read-out: IC50 T1-10R.
The subject of assay [7] is imatinib sensitive cell lines. Description: Cell proliferation assay. The class given is cell-based.
In assay [8] the test system is metastatic GIST. The conditions noted are these: 4th line therapy; cited from earlier work.
[9] abbreviates: Homo sapiens, GISTT1, cell viability after 72 hours of treatment.
Where [10] appears, read: Homo sapiens, GIST882, cell viability after 72 hours of treatment.
Setting [11] is: cell viability after 72 hours of treatment.

Where two headings read alike, the source gives them in different places.

For the molecule `Cc1cc(Nc2cc(N3CCN(C)CC3)nc(Sc3ccc(NC(=O)C4CC4)cc3)n2)[nH]n1` [Tozasertib], the IC50 is 5 µM in assay [1]; above 10 µM in assay [2] (setting [9]); 5 µM in assay [3] (setting [9]); 5 µM in assay [4]; 5 µM in assay [5] (setting [10]); above 10 µM in assay [6] (setting [9]).
For `C[C@H]1O[C@@H](O[C@H]2[C@@H](O)C[C@H](O[C@H]3[C@@H](O)C[C@H](O[C@H]4CC[C@@]5(C)[C@H](CC[C@@H]6[C@@H]5CC[C@]5(C)[C@@H](C7=CC(=O)OC7)CC[C@]65O)C4)O[C@@H]3C)O[C@@H]2C)C[C@H](O)[C@@H]1O` [Digitoxin], the IC50 in assay [2] (setting [9]) was 0.5 µM; in assay [3] (setting [9]), below 0.1 µM; in assay [5] (setting [10]) it was below 0.5 µM; in assay [6] (setting [9]) it was 0.5 µM. The “concentration that inhibited the proliferation of imatinib sensitive cell lines” value in assay [7] was below 0.5 µM.
As for `Cc1ccc(Nc2nccc(N(C)c3ccc4c(C)n(C)nc4c3)n2)cc1S(N)(=O)=O` [Pazopanib], the IC50 is above 10 µM in assay [1]; above 5 µM in assay [2] (setting [9]); 0.025 µM in assay [3] (setting [9]); above 10 µM in assay [4]; 0.5 µM in assay [5] (setting [10]); above 1 µM in assay [6] (setting [9]).
Regarding `CCn1c(=O)c(-c2cc(NC(=O)Nc3ccccc3)c(F)cc2Br)cc2cnc(NC)cc21` [Ripretinib], in assay [8], the mean progression-free survival is reported as 6.3 months.
Regarding `C[C@]12O[C@H](C[C@]1(O)CO)n1c3ccccc3c3c4c(c5c6ccccc6n2c5c31)CNC4=O` [Lestaurtinib], the IC50 in assay [1] was above 10 µM; in assay [2] (setting [9]), 5 µM; in assay [3] (setting [9]), 0.1 µM; in assay [4], above 10 µM; in assay [5] (setting [10]), above 10 µM; in assay [6] (setting [9]), 5 µM. In addition, the “concentration that inhibited the proliferation of imatinib sensitive cell lines” value in assay [7] (72 h) was below 0.5 µM.
For `COc1c(C[C@@H](C)OC(=O)Oc2ccc(O)cc2)c2c3c(C[C@@H](C)OC(=O)c4ccccc4)c(OC)c(=O)c4c(O)cc(OC)c(c5c(OC)cc(O)c(c1=O)c52)c43` [Calphostin C], the IC50 in assay [2] (Homo sapiens, GISTT1, 72 h) is above 1 µM; in assay [3] (Homo sapiens, GISTT1, 72 h), 0.1 µM; in assay [5] (Homo sapiens, GIST882, 72 h), 0.1 µM; in assay [6] (Homo sapiens, GISTT1, 72 h), above 1 µM. In addition, the “concentration that inhibited the proliferation of imatinib sensitive cell lines” value in assay [7] (72 h) is below 0.5 µM.
Consider `CCc1c2c(nc3ccc(OC(=O)N4CCC(N5CCCCC5)CC4)cc13)-c1cc3c(c(=O)n1C2)COC(=O)[C@]3(O)CC` [Irinotecan], for which the IC50 worked out at 5 µM in assay [1]; 5 µM in assay [2] (setting [9]); 0.5 µM in assay [3] (setting [9]); 5 µM in assay [4]; 0.5 µM in assay [5] (setting [10]); 5 µM in assay [6] (setting [9]). Further, the “concentration that inhibited the proliferation of imatinib sensitive cell lines” value in assay [7] (72 h) was below 0.5 µM.
Take `Clc1ccc(Nc2nnc(Cc3ccncc3)c3ccccc23)cc1` [Vatalanib]: the IC50 was above 10 µM in assay [1]; above 10 µM in assay [2] (setting [9]); 0.1 µM in assay [3] (setting [9]); above 10 µM in assay [4]; 1 µM in assay [5] (setting [10]); above 10 µM in assay [6] (setting [9]).
With `O=C1CCc2c(ccc3ccccc23)O1` [Splitomicin], the IC50 in assay [1] was above 10 µM; in assay [2] (setting [9]) it was above 10 µM; in assay [3] (setting [9]), above 10 µM; in assay [4], above 10 µM; in assay [5] (setting [10]), 15 µM; in assay [6] (setting [9]) it was above 10 µM.
For `O=C(O)c1cc(N(Cc2ccccc2O)Cc2cc(O)ccc2O)ccc1O` [Lavendustin A], the IC50 in assay [2] (setting [9]) was above 15 µM; in assay [3] (setting [9]) it was above 100 µM; in assay [5] (setting [10]), above 100 µM; in assay [6] (setting [9]), above 15 µM.
Turning to `c1cc(-c2cnn3cc(-c4ccc(OCCN5CCCCC5)cc4)cnc23)ccn1` [Compound C], the IC50 in assay [2] (setting [11]) was 5 µM; in assay [3] (setting [11]) it was below 0.1 µM; in assay [5] (setting [11]) it was below 0.1 µM; in assay [6] (setting [11]) it was 5 µM. Further, the “concentration that inhibited the proliferation of imatinib sensitive cell lines” value in assay [7] (72 h) was below 0.5 µM.
